Test results from patent publication US6043045A, “Screening methods for the identification of novel antibiotics” (The Scripps Research Institute, priority 1998, dated 2000).
Entries after “also recorded” stand apart in the source; their conditions may differ. Read-outs that look alike come from different tables or passages of the source.

Biological target: T1, KinA (Bacillus subtilis, UniProt P16497)
T1 construct: made in house
T1 sequence (P16497 1-606): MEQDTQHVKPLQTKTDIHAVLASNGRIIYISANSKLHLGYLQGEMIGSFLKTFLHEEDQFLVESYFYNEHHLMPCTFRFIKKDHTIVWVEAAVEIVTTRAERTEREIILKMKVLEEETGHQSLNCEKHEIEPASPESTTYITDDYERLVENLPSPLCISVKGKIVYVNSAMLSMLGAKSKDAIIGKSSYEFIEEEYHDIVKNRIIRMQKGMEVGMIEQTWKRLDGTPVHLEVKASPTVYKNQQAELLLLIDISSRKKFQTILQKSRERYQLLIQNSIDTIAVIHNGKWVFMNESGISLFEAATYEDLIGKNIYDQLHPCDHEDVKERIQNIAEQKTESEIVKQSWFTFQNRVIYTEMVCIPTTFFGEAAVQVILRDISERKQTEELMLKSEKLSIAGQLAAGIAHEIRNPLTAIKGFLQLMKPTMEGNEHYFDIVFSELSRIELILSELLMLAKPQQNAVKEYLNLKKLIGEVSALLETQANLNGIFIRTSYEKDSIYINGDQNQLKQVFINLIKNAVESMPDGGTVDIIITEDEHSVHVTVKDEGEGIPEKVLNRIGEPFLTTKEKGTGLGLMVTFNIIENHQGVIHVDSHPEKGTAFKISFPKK
Test: biochemical
Assay type: biochemical
Details: for inhibition of KinA phosphorylation of SpoOF (in words): tested at 0.08% final concentration
Experimental: The reactions were performed in a 25 μl final volume containing 100 mM Tris pH 8.0, 100 mM KCl, 2 mM MgCl2, 0.5 mM dithiothreitol, 10% (v/v) glycerol, 0.1 % (w/v) gelatin, 4% (v/v) ethanol, 200 μM total ATP containing approximately 1.5 μCi [gamma-^32 P]ATP (New England Nuclear, 6000 Ci/mMol, 150 μCi/ml), 300 μM SpoOF protein and 0.04 μM KinA protein (Perego, et al., J. Bacteriol. 171: 6187-6196 (1989)) unless otherwise indicated. Fatty acids were added to varying final concentration from solutions made with 100% ethanol (the 4% ethanol concentration in the reaction mixture reflects these addition, or in the case of controls, the addition of ethanol alone). The reactions were initiated by addition of the ATP and incubated for thirty minutes at room temperature.
When higher KinA concentrations were used, the time of incubation was adjusted accordingly. The reactions were stopped by adding an equal volume of loading dye (0.25 M Tris pH 6.8, 20% (v/v) glycerol, 1% sodium dodecyl sulfate (w/v), 140 mM β-mercaptoethanol, 0.05% (w/v) bromophenol blue) and aliquots were loaded onto polyacrylamide gels (5% stacking, 15% separating, using the buffer system of Laemmi, Id., 1970).
The gels were run for approximately 16 hours at 10 mA constant current. The gels were covered with plastic wrap and subjected to autoradiography using Kodak XOmat RP1 film. Quantitation of activity was accomplished by cutting gels slices containing the appropriate phosphoprotein (usually SpoOF~P, see Section E below) and counting the Cerenkov radiation in a Beckman LF7500 scintillation counter (Beckman Instruments, Fullerton, Calif.). Equal-sized slices from blank areas of the gels were also counted and used to adjust for background. Percentage of activity was calculated using the value of the control reaction as 100%.
To quantify our initial assessment of inhibitory properties, the I0.5 values (at 4×10^-8 M KinA) were determined for each of the fatty acids. […] For example, the percent activity at an indicated oleic acid concentration is the ratio (×100) of the incorporation of ^32 P (from [γ^32 P]ATP) into the SpoOF protein relative to the incorporation in the control reaction containing no inhibitor. Typically, data are gathered from at least two different experiments. The I0.5 value is the concentration--e.g., the oleic acid concentration--corresponding to 50% activity as determined from the relevant graph.

[1] = Table 4, I0.5 at 4×10^-8 M KinA, 32P incorporation into SpoOF, read-out: Fatty Acid Inhibitors of KinA Activity (category by I0.5)
[2] = Fatty Acid Inhibitors of KinA Activity (category by I0.5), Table 4, I0.5 at 4×10^-8 M KinA, 32P incorporation into SpoOF
[3] = at 4×10^-8 M KinA, read-out: I0.5 value (concentration corresponding to 50% KinA activity)

| Compound | IC50 [1] [µM] | inhibitory effect on KinA in vitro (in words) | also measured |
| --- | --- | --- | --- |
| L-α-phosphatidylcholine | – | – | inhibition of KinA phosphorylation of SpoOF (in words): Only oleic acid and stearic acid were inhibitory |
| CCCCCCCCCCCCCCCC(=O)O [hexadecanoic] | > 1000 | little or no inhibitory effect | inhibition of KinA phosphorylation of SpoOF (in words): Only oleic acid and stearic acid were inhibitory |
| CCCCC/C=C\C/C=C\C/C=C\C/C=C\CCCC(=O)O [all cis-5,8,11,14-eicosatetraenoic] | – | – | IC50 [2]: < 70 µM |
| CCCCCCCC/C=C\CCCCCCCCCCCCCC(=O)O [cis-15-tetracosenoic] | – | non-inhibitory | IC50 [2]: > 1000 µM |
| CCCCCC(=O)O [hexanoic] | > 1000 | not inhibitors | – |
| O=P(O)(O)OCC(O)CO (centres unmarked) [glycerophosphate] | – | – | inhibition of KinA phosphorylation of SpoOF (in words): Only oleic acid and stearic acid were inhibitory |
| CCCCCCCCCC(=O)O [decanoic] | – | not inhibitors | IC50 [2]: > 1000 µM |
| CCCCCC/C=C/CCCCCCCCCC(=O)O [trans-11-octadecenoic] | – | – | IC50 [2]: > 1000 µM; inhibitory effect on KinA in vitro (in words) (listed as trans-vaccenic): little or no inhibitory effect; also recorded: not inhibitory |
| CCCCCCCCCCCC(=O)O [dodecanoic] | > 1000 | not inhibitors | – |
| CCCCCCCCCCCCCCCCCC(=O)O [octadecanoic] | – | – | IC50 [2]: 100 to 500 µM; IC50 (I0.5 value (concentration corresponding to 50% KinA activity), at 4×10^-8 M KinA): 500 µM; inhibitory effect on KinA in vitro (in words) (listed as stearic): little or no inhibitory effect; inhibitory effect on KinA in vitro (in words) (listed as stearic acid): weak inhibitor; also recorded: very weak inhibitor; inhibition of KinA phosphorylation of SpoOF (in words): weak inhibition |
| CCCCCCCC/C=C\CCCCCCCCCCCC(=O)O [cis-13-docosenoic] | > 1000 | non-inhibitory | – |
| CCCCCCCC/C=C/CCCCCCCC(=O)O [trans-9-octadecenoic] | > 1000 | – | inhibitory effect on KinA in vitro (in words) (listed as elaidic): little or no inhibitory effect; also recorded: not inhibitory |
| CCCCCC/C=C\CCCCCCCCCC(=O)O [cis-11-octadecanoic] | – | potent inhibitors | IC50 [2]: < 70 µM |
| L-α-phosphatidic acid | – | – | inhibition of KinA phosphorylation of SpoOF (in words): Only oleic acid and stearic acid were inhibitory |
| L-α-glycerophosphatidylcholine | – | – | inhibition of KinA phosphorylation of SpoOF (in words): Only oleic acid and stearic acid were inhibitory |
| CC(C)CCCCCCCCCCCC(=O)O [13-methyltetradecanoic] | 100 to 500 | weak inhibitors | IC50 [3]: 400 µM; inhibitory effect on KinA in vitro (in words) (listed as 13-methyltetradecanoic acid): weak in vitro inhibitors; inhibitory effect on KinA in vitro (in words) (listed as iso 15:0): weak inhibitory properties |

Second part, led by results:

| IC50 [1] [µM] | inhibitory effect on KinA in vitro (in words) | Compound | also measured |
| --- | --- | --- | --- |
| < 70 | – | CC/C=C\C/C=C\C/C=C\CCCCCCCC(=O)O [all cis-9,12,15-octadecanoic] | – |
| 100 to 500 | weak inhibitors | CC(C)CCCCCCCCCCC(=O)O [12-methyltridecanoic] | inhibitory effect on KinA in vitro (in words) (listed as 12-methyltridecanoic acid): weak in vitro inhibitors; inhibitory effect on KinA in vitro (in words) (listed as iso 14:0): weak inhibitory properties |
| > 1000 | not inhibitors | CC(C)CCCCCCCCCCCCC(=O)O [14-methylpentadecanoic] | – |
| > 1000 | – | CCCCCCCCCCCCCC(=O)O [tetradecanoic] | – |
| > 1000 | not inhibitors | CCCCCCCC(=O)O [octanoic] | – |
| > 1000 | – | CCCCCCCCCCCCCCCCC(=O)O [heptadecanoic] | – |
| > 1000 | – | C/C=C/C(=O)O [trans-2-butenoic] | – |
| 100 to 500 | only a weak inhibitor | CCCC/C=C\CCCCCCCC(=O)O [cis-9-tetradecenoic] | IC50 [3]: 200 µM |
| > 1000 | not inhibitors | CC(C)CCCCCCCCCCCCCCC(=O)O [16-methylheptadecanoic] | – |
| < 70 | – | CCCCC/C=C\C/C=C\CCCCCCCC(=O)O [cis,cis-9,12-octadecenoic] | – |
| < 70 | – | CCCCCCCC/C=C\CCCCCCCCCC(=O)O [cis-11-eicosenoic] | – |
| > 1000 | – | CCCCCCCCCCCCCCCCCCCC(=O)O [eicosanoic] | – |
| > 1000 | not inhibitors | CC(C)CCCCCCCCCCCCCC(=O)O [15-methylhexadecanoic] | – |
| < 70 | – | CCCCCCCCCCC/C=C\CCCCC(=O)O [cis-6-octadecanoic] | – |
| < 70 | potent inhibitors | CCCCCC/C=C\CCCCCCCC(=O)O [cis-9-hexadecanoic] | – |
